Data: patent US12507703B2, “Methods, devices and compositions for preserving human milk” (The Trustees of Princeton University, priority 2023, dated 2025)
Where “and” joins values, the source holds several entries; their conditions need not be identical. Equal entries are not always repeated.

Tested on: lipase
Experiment: Lipase/lipolysis assay (EnzChek Lipase Substrate, quenched BODIPY-fatty acid conjugate) on stored human milk; further: test concentration or dose not given here

Compound | Lipase (RFU)
COC(=O)C1=CO[C@@H](O[C@@H]2O[C@H](CO)[C@@H](O)[C@H](O)[C@H]2O)[C@@H]2[C@@H](C)CC(=O)[C@]12O [Hastatoside] | 738.976 RFU
NC(N)=NCCC[C@H](NC(=O)[C@@H](N)Cc1ccc(O)cc1)C(=O)O [Kyotorphin] | 988.5967 RFU
CC(=O)C(=O)c1ccccc1 [1-Phenylpropane-1,2-dione] | 1078.742 RFU
CCCCC[C@H](O)/C=C/[C@H]1C(=O)C[C@H](O)[C@@H]1C/C=C\CCCC(=O)O [Prostaglandin D2] | 071064.5 RFU
Oc1ccc([C@H]2Oc3cc(O)cc(O)c3C[C@@H]2O)cc1 [(+)-Afzelechin] | 1063.84 RFU
C[C@H](CCC(=O)NCCS(=O)(=O)[O-])[C@H]1CC[C@H]2[C@@H]3[C@@H](O)C[C@@H]4C[C@H](O)CC[C@]4(C)[C@H]3CC[C@]12C.[Na+] [Tauroursodeoxycholate (sodium)] | 939.6362 RFU
O=C(O)CCCCC1CCSS1 (stereo not drawn) [Lipoic acid] | 1146.052 RFU
COc1ccc(C[C@H]2COC(=O)[C@]2(O)Cc2ccc(O[C@@H]3O[C@H](CO)[C@@H](O)[C@H](O)[C@H]3O)c(OC)c2)cc1OC [Tracheloside] | 940.7065 RFU
CC/C=C\CC1=C(C)CCC1=O [cis-Jasmone] | 1015.76 RFU
O=C(O)[C@H](O)[C@@H](O)[C@H](O)[C@H](O)CO[C@H]1O[C@H](CO)[C@H](O)[C@H](O)[C@H]1O [Melibionic Acid] | 917.5297 RFU
O=C(O)CCCC(=O)C(=O)O [Oxoadipic acid] | 732.376 RFU
O=c1cc(-c2ccc(O)cc2)oc2c([C@@H]3O[C@H](CO)[C@@H](O)[C@H](O)[C@H]3O)c(O)c([C@@H]3OC[C@H](O)[C@H](O)[C@H]3O)c(O)c12 [Isoschaftoside] | 949.6414 RFU
Tara gum | 841.631 RFU
O=c1ccc2cc3ccoc3c(O)c2o1 [Xanthotoxol] | 1117.591 RFU
CCC1CCC(=O)O1 (stereo not drawn) [γ-Hexalactone] | 1020.576 RFU
O=C1/C(=C2\Nc3ccc(S(=O)(=O)[O-])cc3C2=O)Nc2ccc(S(=O)(=O)[O-])cc21.[Na+].[Na+] [Indigo carmine] | 862.5624 RFU
Disodium succinate | 1168.659 RFU and 874.998 RFU
CC(=O)Oc1c(C)c(C)c2c(c1C)CCC(C)(CCC[C@H](C)CCC[C@H](C)CCCC(C)C)O2 (stereo partly drawn) [D-α-Tocopherol acetate] | 1194.717 RFU
NC(=O)NCCCC(N)C(=O)O (stereo not drawn) [2-Amino-5-ureidopentanoic acid] | 983.9261 RFU
C=CCc1ccc(O)c(-c2cc(CC=C)ccc2O)c1 [Magnolol] | 941.9616 RFU
COc1cc(C2Oc3ccc([C@H]4Oc5cc(O)cc(O)c5C(=O)[C@@H]4O)cc3OC2CO)ccc1O (stereo partly drawn) [Isosilybin] | 921.7702 RFU
N#CC[C@H](N)C(=O)O [β-cyano-L-Alanine] | 869.3786 RFU
Prosapogenin A | 965.3667 RFU

Compound | Lipase (RFU)
CC(=O)NCCCCNCCCN.Cl.Cl [N8-Acetylspermidine dihydrochloride] | 781.9265 RFU
COc1cc(O)c2c(=O)cc(-c3ccccc3)oc2c1 [Tectochrysin] | 890.4365 RFU
O=c1ccc2cc(O[C@@H]3O[C@H](CO)[C@@H](O)[C@H](O)[C@H]3O)c(O)cc2o1 [Esculin] | 1207.652 RFU
NCc1[nH]cc(CCC(=O)O)c1CC(=O)O [Porphobilinogen] | 1154.849 RFU
COc1ccc(-c2cc(=O)c3c(OC)c(OC)c(OC)c(OC)c3o2)cc1 [Tangeritin] | 1254.653 RFU
C[N+](C)(C)CC(O)CC(=O)[O-] (racemic) [D,L-Carnitine] | 1067.602 RFU and 1032.196 RFU
C=C1[C@H]2CC[C@@H]3[C@H]2C(C)(C)CCC[C@]13C [(+)-Longifolene] | 1228.195 RFU
CC(C)(O)[C@H]1Cc2cc3ccc(=O)oc3cc2O1 [Nodakenetin] | 882.2828 RFU
N[C@@H](CS)C(=O)NCC(=O)O [L-Cysteinyl-Glycine] | 708.9877 RFU
COC1=CC(=O)O[C@@H](/C=C/c2ccc3c(c2)OCO3)C1 [Methylsticin] | 1261.171 RFU
CC(C)=CCc1c(O)cc2oc3cc(O)c(O)c(CC=C(C)C)c3c(=O)c2c1O [Gamma-Mangostin] | 1083.745 RFU
O=C[C@H](O)[C@@H](O)[C@H](O)[C@H](O)COP(=O)([O-])[O-].[Na+].[Na+] [D-Glucose 6-phosphate (disodium salt)] | 1238.699 RFU
COc1ccc(-c2cc(=O)c3c(OC)c(OC)c(OC)c(OC)c3o2)cc1O [3′-Demethylnobiletin] | 794.5882 RFU
CC1(C)[C@@H](O)CC[C@]2(C)[C@H]3C(=O)C=C4[C@@H]5C[C@@](C)(C(=O)O)CC[C@]5(C)CC[C@@]4(C)[C@]3(C)CC[C@@H]12 [18β-Glycyrrhetinic acid] | 736.3555 RFU
Cc1cc(O)c2c(c1)C(=O)c1cc(O)cc(O[C@@H]3O[C@H](CO)[C@@H](O)[C@H](O)[C@H]3O)c1C2=O [Emodin-1-O-β-D-glucopyranoside] | 964.8621 RFU
CCCCCC(O)/C=C/C=O (stereo not drawn) [Compound 4-Hydroxynonenal, 4-Hydroxynonenal] | 827.4103 RFU
(−)-Epiafzelechin | 915.141 RFU
D-(−)-Quinic acid | 827.4863 RFU
COc1cc2oc3cc(O)c(OC)c(CC=C(C)C)c3c(=O)c2c(O)c1CC=C(C)C [beta-Mangostin] | 828.6091 RFU
CC(=O)O[C@@H]1CC[C@@]2(C)[C@@H](CC[C@]3(C)[C@@H]2C(=O)C=C2[C@@H]4[C@@H](C)[C@H](C)CC[C@]4(C)CC[C@]23C)[C@@]1(C)C(=O)O [AKBA] | 1066.269 RFU
COC(=O)[C@H](Cc1ccccc1)NC(=O)[C@H](CC(=O)O)NCCC(C)(C)C [Neotame] | 994.7737 RFU
C=C(CO)C(=O)O[C@H]1CC(=C)[C@@H]2C[C@H](O)C(=C)[C@@H]2[C@H]2OC(=O)C(=C)[C@@H]21 [Cynaropicrin] | 1182.791 RFU
CC1(C)S[C@@H]2[C@H](NC(=O)[C@H](N)c3ccc(O)cc3)C(=O)N2[C@H]1C(=O)[O-].[Na+] [Amoxicillin (sodium)] | 1082.26 RFU

Compound | Lipase (RFU)
C[C@@H]1CC[C@@]2(NC1)O[C@H]1C[C@H]3[C@@H]4CC=C5C[C@@H](O)CC[C@]5(C)[C@H]4CC[C@]3(C)[C@H]1[C@@H]2C [Solasodine] | 1073.206 RFU
Nc1ncnc2c1ncn2[C@@H]1O[C@H](COP(=O)(O)OP(=O)(O)OP(=O)([O-])[O-])[C@@H](O)[C@H]1O.O.O.O.[Na+].[Na+] [ATP (disodium trihydrate)] | 947.4309 RFU
CC(C)=CCC[C@](C)(O)[C@H]1CC[C@]2(C)[C@@H]1[C@H](O)C[C@@H]1[C@@]3(C)CC[C@H](O)C(C)(C)[C@@H]3[C@@H](O[C@@H]3O[C@H](CO)[C@@H](O)[C@H](O)[C@H]3O[C@@H]3O[C@@H](C)[C@H](O)[C@@H](O)[C@H]3O)C[C@]12C [Ginsenoside Rg2] | 1144.609 RFU
Cn1cncc1C[C@H](NC(=O)CCN)C(=O)O [Anserine] | 1023.923 RFU
C[C@H]1CC[C@]2(NC1)O[C@H]1C[C@H]3[C@@H]4CC[C@H]5C[C@@H](O[C@@H]6O[C@H](CO)[C@H](O[C@@H]7O[C@H](CO)[C@@H](O)[C@H](O[C@@H]8OC[C@@H](O)[C@H](O)[C@H]8O)[C@H]7O[C@@H]7O[C@H](CO)[C@@H](O)[C@H](O)[C@H]7O)[C@H](O)[C@H]6O)CC[C@]5(C)[C@H]4CC[C@]3(C)[C@H]1[C@@H]2C [Tomatine] | 635.5707 RFU
O=CO [Formic Acid] | 1027.958 RFU
1,4-Dicaffeoylquinic acid | 794.8464 RFU
OC[C@H]1O[C@@H](O[C@H]2[C@H](O)[C@@H](O)[C@@H](O)O[C@@H]2CO)[C@H](O)[C@@H](O)[C@H]1O [α-Lactose] | 963.7922 RFU
Maltopentaose | 907.876 RFU
C[C@H]1[C@H](C)CC[C@]2(C(=O)O)CC[C@]3(C)C(=CC[C@@H]4[C@@]5(C)CC[C@H](O)C(C)(C)[C@@H]5CC[C@]43C)[C@H]12 [3-Epiursolic Acid] | 968.3096 RFU
C[N+]1(C)CCC[C@H]1C(=O)[O-].Cl [Stachydrine hydrochloride] | 915.6673 RFU
CC1=C(C=O)C(C)(C)C[C@H](O[C@@H]2O[C@H](CO)[C@@H](O)[C@H](O)[C@H]2O)C1 [Picrocrocin] | 633.2514 RFU
O=C(CO)[C@@H](O[C@H]1O[C@H](CO)[C@@H](O)[C@H](O)[C@H]1O)[C@H](O)[C@H](O)CO [Turanose] | 1221.239 RFU and 697.9672 RFU
COc1cc2c(cc1OC)[C@@H]1C(=O)c3ccc4c(c3O[C@@H]1CO2)C=CC(C)(C)O4 [Deguelin] | 955.3932 RFU
O.O.O.O.OC[C@H]1O[C@H](OC[C@H]2O[C@H](OC[C@H]3O[C@H](O[C@]4(CO)O[C@H](CO)[C@@H](O)[C@@H]4O)[C@H](O)[C@@H](O)[C@@H]3O)[C@H](O)[C@@H](O)[C@H]2O)[C@H](O)[C@@H](O)[C@H]1O [Stachyose (tetrahydrate)] | 648.6527 RFU
C=CCc1cc(OC)c2c(c1)OCO2 [Myristicin] | 960.4671 RFU
CC1(C)C[C@H]2C3=CC[C@@H]4[C@@]5(C)CC[C@H](O)[C@](C)(CO)[C@@H]5CC[C@@]4(C)[C@]3(C)CC[C@@]2(C)[C@H](O)[C@@H]1O [Soyasapogenol A] | 1098.785 RFU
O=C(O)CC(O)(C(=O)O)C(O)C(=O)O (stereo not drawn) | 1053.487 RFU
O=C1c2ccccc2C(=O)c2cc(CO)ccc21 [2-(Hydroxymethyl)anthraquinone] | 723.6408 RFU
O=C(O)C(O)COP(=O)(O)O [D-3-Phospho-Glyceric Acid] | 875.2279 RFU
CC(C)CC(=O)O[C@H](CC(=O)[O-])C[N+](C)(C)C [Isovalerylcarnitine] | 737.2804 RFU
Cl.Cl.NCCCCN [1,4-Diaminobutane (dihydrochloride)] | 865.534 RFU
CC(C)CCC[C@@H](C)[C@H]1CC[C@H]2C3=CC=C4C[C@@H](O)CC[C@]4(C)[C@H]3CC[C@]12C [Compound 7-Dehydrocholesterol] | 820.8412 RFU
